Laboratory results reported in patent US8962650B2, “Therapeutic agent for tumor” (Eisai R&D Management Co., Ltd., priority 2011, dated 2015).

System: human melanoma cell line (A375)
Assay: Tumor proliferation inhibitory effect in nude mice transplanted with human melanoma cell line A375 (relative tumor volume)
Format: in vivo, mouse
Details: oral once daily 10 mL/kg (Compound A 1 mg/mL, PLX4032 10 mg/mL), A375 subcutaneous
Procedure: The present invention is described in more detail by way of Examples below. Example 1 Tumor Proliferation Inhibitory Effect of the Combined Use of Compound A and PLX4032 on a Human Melanoma Cell Line (A375)
Using five nude mice in one group (CAnN.Cg-Foxn1nu/CrlCrlj, female, Charles River Laboratories Japan, Inc.), the antitumor effect of administration of Compound A, PLX4032, or both of these compounds was evaluated. The human-derived melanoma cell line A375 (ATCC) was suspended in PBS (Wako Pure Chemical Industries, Ltd) at a density of 5×10^6 cells/ml, followed by thorough mixing. The resulting mixture was subcutaneously transplanted at the right flank of the body of each mouse in an amount of 0.1 mL. Fourteen days after transplantation, the major axis and the minor axis of a tumor were measured by a digital caliper (Digimatic™ caliper, Mitsutoyo Corporation). The mice were grouped so that the average value of tumor volume was nearly equal among the groups. Also, the tumor volume was calculated according to the equations below. Tumor volume (mm^3)=major axis (mm)×minor axis (mm)×minor axis (mm)/2
Compound A was dissolved in purified water at a concentration of 1 mg/mL. Also, PLX4032 was dissolved in DMSO at a concentration of 200 mg/ml. Further, the resulting solution was diluted 20-fold with a 1% aqueous solution of methylcellulose to prepare a 10 mg/mL PLX4032 suspension.
A control group, a Compound A group, a PLX4032 group, and a Compound A and PLX4032-combination group (hereinbelow, expressed as a combination group) were set up. The aqueous solution of Compound A or the PLX4032 suspension was orally administered to the mice in the Compound A group or the PLX4032 group, respectively, once daily at 10 mL/kg. To the combination group mice, the above drug solutions were each orally administered once daily at 10 mL/kg. The administration period was 23 days. Also, administration was not given to the control group mice.
The tumor volume was measured on the initial day of administration and on the 2nd, 5th, 7th, 9th, 12th, 14th, 16th, 19th, 21st, and 23rd days after initiation of administration. The ratio of the tumor volume on each day of measurement relative to the tumor volume on the initial day of administration was calculated as a relative tumor volume (hereinbelow, expressed as RTV). Further, the average value of RTV of mice in each group was calculated. The changes in the average value of RTV with time were shown in Table 1 and FIG. 1 and the value of each group on Day 23 was shown in FIG. 2.

[1] = Day 2 after initiation of administration
[2] = Day 5 after initiation of administration
[3] = Day 7 after initiation of administration
[4] = Day 9 after initiation of administration
[5] = Day 12 after initiation of administration
[6] = Day 14 after initiation of administration
[7] = Day 16 after initiation of administration
[8] = Day 19 after initiation of administration
[9] = Day 21 after initiation of administration
[10] = Day 23 after initiation of administration

Compound	average relative tumor volume (RTV) [1]	average relative tumor volume (RTV) [2]	average relative tumor volume (RTV) [3]	average relative tumor volume (RTV) [4]	average relative tumor volume (RTV) [5]	average relative tumor volume (RTV) [6]	average relative tumor volume (RTV) [7]	average relative tumor volume (RTV) [8]	average relative tumor volume (RTV) [9]	average relative tumor volume (RTV) [10]
COc1cc2nccc(Oc3ccc(NC(=O)NC4CC4)c(Cl)c3)c2cc1C(N)=O [Compound A, 4-[3-chloro-4-(cyclopropylaminocarbonyl)aminophenoxy]-7-methoxy-6-quinolinecarboxamide]	1.77	2.62	3.40	3.85	5.12	5.40	6.30	7.89	9.16	10.17
CCCS(=O)(=O)Nc1ccc(F)c(C(=O)c2c[nH]c3ncc(-c4ccc(Cl)cc4)cc23)c1F [PLX4032, N-(3-{[5-(4-chlorophenyl)-1H-pyrrolo[2,3-b]pyridin-3-yl]carbonyl}-2,4-difluorophenyl)propane-1-sulfonamide]	0.98	0.94	1.00	1.13	1.46	1.38	1.52	1.63	1.80	1.93
